Measured values from patent US20240182481A1 (Tango Therapeutics, Inc., priority 2021, published 2024).

What was measured:
[1] = target: USP1-UAF1 (Homo sapiens, UniProt O94782); assay: Ubiquitin Rhodamine assay for USP1-UAF1 activity; type: biochemical
Experimental: Certain compounds of the disclosure were assessed for USP1-UAF1 activity in a Ubiquitin Rhodamine assay as described in Example 135.

[2] = system: MDA-MB-436 (BRCA1 mutant) cell line; assay: Viability assay in BRCA1 mutant cell line MDA-MB-436; type: cell-based; settings: Homo sapiens, MDA-MB-436, viability, BRCA1 mutant MDA-MB-436; read-out: MDA-MB-436 rel IC50
Excerpt: (§1) Table 1 also indicates IC50 values in a viability assay for a non-isogenic pair of BRCA1 mutant (column 5—MDA-MB-436) and BRCA1 WT (column 6—HCC1954) cell lines. These values indicate the effect of treatment with compound on cell survival.

[3] = system: HCC1954 (BRCA1 WT) cell line; assay: Viability assay in BRCA1 WT cell line HCC1954; type: cell-based; settings: Homo sapiens, read-out: HCC 1954 IC50 rel IC50
Excerpt: as §1

[4] = system: monoubiquitinated PCNA; assay: AlphaLISA assay measuring monoubiquitinated PCNA in MDA-MB-436; type: cell-based; settings: Homo sapiens, read-out: Alpha LISA IC50
Excerpt: Table 1 also indicates IC50 values for exemplary compounds in an AlphaLISA assay measuring monoubiquitinated PCNA in a BRCA1 mutant cell line (MDA-MB-436; column 7).

USP1-UAF1, sequence (O94782 whole entry): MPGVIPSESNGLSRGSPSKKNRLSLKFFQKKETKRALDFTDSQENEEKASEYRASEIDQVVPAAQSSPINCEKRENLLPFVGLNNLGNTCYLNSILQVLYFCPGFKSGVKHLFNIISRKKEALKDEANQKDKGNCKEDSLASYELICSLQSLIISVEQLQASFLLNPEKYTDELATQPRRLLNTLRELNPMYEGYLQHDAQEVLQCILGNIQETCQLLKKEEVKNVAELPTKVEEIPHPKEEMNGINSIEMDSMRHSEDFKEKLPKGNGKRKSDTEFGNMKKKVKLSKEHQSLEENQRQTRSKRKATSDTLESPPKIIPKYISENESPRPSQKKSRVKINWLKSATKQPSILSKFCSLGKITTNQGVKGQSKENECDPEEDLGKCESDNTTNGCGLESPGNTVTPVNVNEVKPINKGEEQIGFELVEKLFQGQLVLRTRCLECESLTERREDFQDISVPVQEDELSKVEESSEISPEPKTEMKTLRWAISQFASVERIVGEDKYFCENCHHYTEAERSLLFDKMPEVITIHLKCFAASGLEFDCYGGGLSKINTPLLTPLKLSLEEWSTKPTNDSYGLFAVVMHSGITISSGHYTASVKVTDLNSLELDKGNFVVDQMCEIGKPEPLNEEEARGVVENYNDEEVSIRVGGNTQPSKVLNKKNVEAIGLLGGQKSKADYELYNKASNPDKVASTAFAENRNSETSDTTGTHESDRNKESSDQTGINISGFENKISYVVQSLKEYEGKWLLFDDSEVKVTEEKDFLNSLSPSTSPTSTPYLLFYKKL
USP1-UAF1, sequence (Q8TAF3 whole entry partner): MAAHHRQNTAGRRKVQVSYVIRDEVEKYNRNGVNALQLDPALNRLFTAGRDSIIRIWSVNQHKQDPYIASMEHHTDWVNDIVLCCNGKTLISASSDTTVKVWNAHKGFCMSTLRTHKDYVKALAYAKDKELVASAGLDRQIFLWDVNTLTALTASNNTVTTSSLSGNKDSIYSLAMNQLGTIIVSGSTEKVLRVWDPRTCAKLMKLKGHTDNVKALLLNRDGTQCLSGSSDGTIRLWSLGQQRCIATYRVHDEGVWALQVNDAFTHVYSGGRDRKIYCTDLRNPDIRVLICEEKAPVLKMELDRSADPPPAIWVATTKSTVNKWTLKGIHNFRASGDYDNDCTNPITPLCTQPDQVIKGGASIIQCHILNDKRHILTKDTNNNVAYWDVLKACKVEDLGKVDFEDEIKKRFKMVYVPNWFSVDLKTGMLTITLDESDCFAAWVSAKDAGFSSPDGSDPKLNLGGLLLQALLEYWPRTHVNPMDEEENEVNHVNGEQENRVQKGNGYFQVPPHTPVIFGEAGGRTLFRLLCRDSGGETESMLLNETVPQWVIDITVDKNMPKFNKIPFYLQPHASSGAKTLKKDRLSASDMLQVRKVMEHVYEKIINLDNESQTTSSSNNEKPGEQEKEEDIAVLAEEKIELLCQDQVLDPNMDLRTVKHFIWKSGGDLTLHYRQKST

Question: How did the IC50 [1] turn out when `CC(C)Oc1ncnc(C2CC2)c1-c1ncc2[nH]cc(Cc3ccc(-c4nc(C(F)(F)F)cn4C)cc3)c2n1` [Compound 118, 2-(4-cyclopropyl-6-isopropoxy-pyrimidin-5-yl)-7-[[4-[1-methyl-4-(trifluoromethyl)imidazol-2-yl]phenyl]methyl]-5H-pyrrolo[3,2-d]pyrimidine] was run?
Answer: < 30 nM

Question: And the IC50 [2]?
Answer: < 100 nM

Question: What about the IC50 [3] of the same compound?
Answer: ≥ 10000 nM

Question: And the IC50 [4]?
Answer: < 100 nM

Question: With `COc1ncnc(C2CC2)c1-c1ncc2[nH]c(CN)c(Cc3ccc(-c4nc(C(F)(F)F)cn4C)cc3)c2n1` [Compound 119] as the compound, how does the IC50 [1] read?
Answer: 100 to 10000 nM

Question: What about the IC50 [2] of the same compound?
Answer: 100 to 250 nM

Question: What about the IC50 [3] of the same compound?
Answer: 250 to 10000 nM

Question: What about the IC50 [4] of the same compound?
Answer: 250 to 10000 nM

Question: For `COc1ncnc(C2CC2)c1-c1ncc2[nH]cc(Cc3ccc(-c4nc(C(F)(F)F)cn4C)cc3F)c2n1` [Compound 120, 2-(4-cyclopropyl-6-methoxy-pyrimidin-5-yl)-7-[[2-fluoro-4-[1-methyl-4-(trifluoromethyl)imidazol-2-yl]phenyl]methyl]-5H-pyrrolo[3,2-d]pyrimidine], which IC50 [1] is on record?
Answer: < 30 nM

Question: And the IC50 [2]?
Answer: < 100 nM

Question: What about the IC50 [3] of the same compound?
Answer: ≥ 10000 nM

Question: What about the IC50 [4] of the same compound?
Answer: < 100 nM

Question: Which IC50 [1] does the source give for `COc1ncnc(C2CC2)c1-c1nc(C(F)(F)F)c2[nH]cc(Cc3ccc(-c4nc(C(F)(F)F)cn4C)cc3)c2n1` [Compound 121, 2-(4-cyclopropyl-6-methoxy-pyrimidin-5-yl)-7-[[4-[1-methyl-4-(trifluoromethyl)imidazol-2-yl]phenyl]methyl]-4-(trifluoromethyl)-5H-pyrrolo[3,2-d]pyrimidine] here?
Answer: < 30 nM

Question: And the IC50 [2]?
Answer: < 100 nM

Question: What about the IC50 [3] of the same compound?
Answer: ≥ 10000 nM

Question: What about the IC50 [4] of the same compound?
Answer: < 100 nM

Question: Which results are given for `Cn1cc(C(F)(F)F)nc1-c1ccc(Cc2c[nH]c3cnc(-c4c(C5CC5)ccnc4C4CC4)nc23)cc1` [Compound 122]?
Answer: IC50 [1]: < 30 nM; IC50 [2]: 100 to 250 nM; IC50 [3]: ≥ 10000 nM; IC50 [4]: 250 to 10000 nM

Question: `CCOc1cc(C(F)(F)F)nn1-c1ccc(Cc2n[nH]c3cnc(-c4c(OC)ncnc4C4CC4)nc23)cc1` [Compound 123, 5-(4-cyclopropyl-6-methoxy-pyrimidin-5-yl)-3-[[4-[5-ethoxy-3-(trifluoromethyl)pyrazol-1-yl]phenyl]methyl]-1H-pyrazolo[4,3-d]pyrimidine] was tested. Which IC50 [1] did it give?
Answer: < 30 nM

Question: And the IC50 [2]?
Answer: < 100 nM

Question: And the IC50 [3]?
Answer: 250 to 10000 nM

Question: What about the IC50 [4] of the same compound?
Answer: < 100 nM

Question: What does the source list for `COc1ncnc(C(C)(C)C)c1-c1ncc2[nH]cc(Cc3ccc(-c4nc(C(F)(F)F)cn4C)cc3)c2n1` [Compound 124, 2-(4-tert-butyl-6-methoxy-pyrimidin-5-yl)-7-[[4-[1-methyl-4-(trifluoromethyl)imidazol-2-yl]phenyl]methyl]-5H-pyrrolo[3,2-d]pyrimidine]?
Answer: IC50 [1]: 30 to 100 nM; IC50 [2]: < 100 nM; IC50 [3]: ≥ 10000 nM; IC50 [4]: 100 to 250 nM

Question: Which IC50 [1] does the source give for `COc1ncnc(C2CC2)c1-c1ncc2c(n1)c(Cc1ccc(-c3nc(C(F)(F)F)cn3C)cc1)cn2CC(F)(F)F` [Compound 125, 2-(4-cyclopropyl-6-methoxy-pyrimidin-5-yl)-7-[[4-[1-methyl-4-(trifluoromethyl)imidazol-2-yl]phenyl]methyl]-5-(2,2,2-trifluoroethyl)pyrrolo[3,2-d]pyrimidine] here?
Answer: < 30 nM

Question: And the IC50 [2]?
Answer: < 100 nM

Question: And the IC50 [3]?
Answer: 250 to 10000 nM

Question: What about the IC50 [4] of the same compound?
Answer: < 100 nM

Question: How did the IC50 [1] turn out when `CCOc1ncnc(C2CC2)c1-c1ncc2[nH]nc(Cc3ccc(-c4nc(C(F)(F)F)cn4C)cc3)c2n1` [Compound 126, 5-(4-cyclopropyl-6-ethoxy-pyrimidin-5-yl)-3-[[4-[1-methyl-4-(trifluoromethyl)imidazol-2-yl]phenyl]methyl]-1H-pyrazolo[4,3-d]pyrimidine] was run?
Answer: < 30 nM

Question: And the IC50 [2]?
Answer: < 100 nM

Question: And the IC50 [3]?
Answer: 250 to 10000 nM

Question: What about the IC50 [4] of the same compound?
Answer: < 100 nM

Question: With `COc1ncnc(C2CC2)c1-c1ncc2[nH]nc(Cc3cc(F)c(-n4nc(C(F)(F)F)cc4C)c(F)c3)c2n1` [Compound 129] as the compound, how does the IC50 [1] read?
Answer: < 30 nM

Question: What about the IC50 [2] of the same compound?
Answer: 100 to 250 nM

Question: What about the IC50 [3] of the same compound?
Answer: 250 to 10000 nM

Question: What about the IC50 [4] of the same compound?
Answer: 100 to 250 nM

Question: What does the source list for `COc1ncnc(C2CC2)c1-c1ncc2nn(CC(F)(F)F)c(Cc3ccc(-c4nc(C(F)(F)F)cn4C)cc3)c2n1` [Compound 131, 5-(4-cyclopropyl-6-methoxy-pyrimidin-5-yl)-3-[[4-[1-methyl-4-(trifluoromethyl)imidazol-2-yl]phenyl]methyl]-2-(2,2,2-trifluoroethyl)pyrazolo[4,3-d]pyrimidine]?
Answer: IC50 [1]: 100 to 10000 nM; IC50 [2]: < 100 nM; IC50 [3]: ≥ 10000 nM; IC50 [4]: < 100 nM

Question: Which IC50 [1] does the source give for `CC(C)n1cc(C(F)(F)F)nc1-c1ccc(Cc2c[nH]c3cnc(-c4c(OC(F)F)ncnc4C4CC4)nc23)cc1` [Compound 132] here?
Answer: < 30 nM

Question: What about the IC50 [2] of the same compound?
Answer: < 100 nM

Question: And the IC50 [3]?
Answer: ≥ 10000 nM

Question: What about the IC50 [4] of the same compound?
Answer: < 100 nM

Question: What does the source list for `COc1ncnc(C2CC2)c1-c1ncc2[nH]nc(Cc3ccc(-c4nc(C(F)(F)F)cn4C4COC4)cc3)c2n1` [Compound 133, 5-(4-cyclopropyl-6-methoxy-pyrimidin-5-yl)-3-[[4-[1-(oxetan-3-yl)-4-(trifluoromethyl)imidazol-2-yl]phenyl]methyl]-1H-pyrazolo[4,3-d]pyrimidine]?
Answer: IC50 [1]: 30 to 100 nM; IC50 [2]: < 100 nM; IC50 [3]: ≥ 10000 nM; IC50 [4]: 100 to 250 nM

Question: With `COc1ncnc(C#N)c1-c1ncc2[nH]cc(Cc3ccc(-c4nc(C(F)(F)F)cn4C)cc3)c2n1` [Compound 134] as the compound, how does the IC50 [1] read?
Answer: 30 to 100 nM

Question: And the IC50 [2]?
Answer: 100 to 250 nM

Question: And the IC50 [3]?
Answer: ≥ 10000 nM

Question: What about the IC50 [4] of the same compound?
Answer: 250 to 10000 nM

Question: How did the IC50 [1] turn out when `[2H]C([2H])([2H])n1cc(C(F)(F)F)nc1-c1ccc(Cc2c[nH]c3cnc(-c4c(OC)ncnc4C4CC4)nc23)cc1` [Compound 135, 2-(4-cyclopropyl-6-methoxy-pyrimidin-5-yl)-7-[[4-[1-(trideuteriomethyl)-4-(trifluoromethyl)imidazol-2-yl]phenyl]methyl]-5H-pyrrolo[3,2-d]pyrimidine] was run?
Answer: < 30 nM

Question: What about the IC50 [2] of the same compound?
Answer: < 100 nM

Question: And the IC50 [3]?
Answer: ≥ 10000 nM

Question: And the IC50 [4]?
Answer: < 100 nM

Question: Which IC50 [1] does the source give for `COc1cccc(OC)c1-c1ncc2[nH]nc(Cc3ccc(-c4nc(C(F)(F)F)cn4C)cc3)c2n1` [Compound 136] here?
Answer: < 30 nM

Question: And the IC50 [2]?
Answer: 100 to 250 nM

Question: What about the IC50 [3] of the same compound?
Answer: ≥ 10000 nM

Question: And the IC50 [4]?
Answer: 250 to 10000 nM

Question: With `CC(C)n1cc(C(F)(F)F)nc1-c1ccc(Cc2n[nH]c3cnc(-c4c(OC(F)F)ncnc4C4CC4)nc23)cc1` [Compound 137, 5-(4-cyclopropyl-6-(difluoromethoxy)pyrimidin-5-yl)-3-(4-(1-isopropyl-4-(trifluoromethyl)-1H-imidazol-2-yl)benzyl)-1H-pyrazolo[4,3-d]pyrimidine] as the compound, how does the IC50 [1] read?
Answer: < 30 nM

Question: And the IC50 [2]?
Answer: < 100 nM

Question: What about the IC50 [3] of the same compound?
Answer: 250 to 10000 nM

Question: What about the IC50 [4] of the same compound?
Answer: < 100 nM

Question: How did the IC50 [1] turn out when `Cn1cc(C(F)(F)F)nc1-c1ccc(Cc2c[nH]c3cnc(-c4c(OC(F)F)ncnc4C4CC4)nc23)cc1` [Compound 138, 2-[4-cyclopropyl-6-(difluoromethoxy)pyrimidin-5-yl]-7-[[4-[1-methyl-4-(trifluoromethyl)imidazol-2-yl]phenyl]methyl]-5H-pyrrolo[3,2-d]pyrimidine] was run?
Answer: < 30 nM

Question: And the IC50 [2]?
Answer: < 100 nM

Question: What about the IC50 [3] of the same compound?
Answer: ≥ 10000 nM

Question: What about the IC50 [4] of the same compound?
Answer: < 100 nM

Question: `CCn1cc(C(F)(F)F)nc1-c1ccc(Cc2c3nc(-c4c(OC)ncnc4C4CC4)ncc3nn2C)cc1` [Compound 139, 5-(4-cyclopropyl-6-methoxypyrimidin-5-yl)-3-(4-(1-ethyl-4-(trifluoromethyl)-1H-imidazol-2-yl)benzyl)-2-methyl-2H-pyrazolo[4,3-d]pyrimidine] was tested. Which IC50 [1] did it give?
Answer: 30 to 100 nM

Question: And the IC50 [2]?
Answer: < 100 nM

Question: And the IC50 [3]?
Answer: ≥ 10000 nM

Question: And the IC50 [4]?
Answer: < 100 nM

Question: For `COc1ncnc(C2CC2)c1-c1ncc2[nH]nc(Cc3ccc(-n4nc(C(F)(F)F)cc4OC)cc3)c2n1` [Compound 140, 5-(4-cyclopropyl-6-methoxy-pyrimidin-5-yl)-3-[[4-[5-methoxy-3-(trifluoromethyl)pyrazol-1-yl]phenyl]methyl]-1H-pyrazolo[4,3-d]pyrimidine], which IC50 [1] is on record?
Answer: < 30 nM

Question: And the IC50 [2]?
Answer: < 100 nM

Question: What about the IC50 [3] of the same compound?
Answer: 250 to 10000 nM

Question: What about the IC50 [4] of the same compound?
Answer: 100 to 250 nM

Question: Which results are given for `COc1nc(C)nc(C2CC2)c1-c1ncc2[nH]cc(Cc3ccc(-c4nc(C(F)(F)F)cn4C)cc3)c2n1` [Compound 142, 2-(4-cyclopropyl-6-methoxy-2-methylpyrimidin-5-yl)-7-(4-(1-methyl-4-(trifluoromethyl)-1H-imidazol-2-yl)benzyl)-5H-pyrrolo[3,2-d]pyrimidine]?
Answer: IC50 [1]: 30 to 100 nM; IC50 [2]: < 100 nM; IC50 [3]: ≥ 10000 nM; IC50 [4]: < 100 nM

Question: With `[2H]C([2H])([2H])n1nc(Cc2ccc(-c3nc(C(F)(F)F)cn3C)cc2)c2nc(-c3c(OC)ncnc3C3CC3)ncc21` [Compound 143, 5-(4-cyclopropyl-6-methoxy-pyrimidin-5-yl)-3-[[4-[1-methyl-4-(trifluoromethyl)imidazol-2-yl]phenyl]methyl]-1-(trideuteriomethyl)pyrazolo[4,3-d]pyrimidine] as the compound, how does the IC50 [1] read?
Answer: < 30 nM

Question: What about the IC50 [2] of the same compound?
Answer: < 100 nM

Question: What about the IC50 [3] of the same compound?
Answer: ≥ 10000 nM

Question: What about the IC50 [4] of the same compound?
Answer: < 100 nM

Question: Which results are given for `COc1ncnc(OC)c1-c1ncc2[nH]nc(Cc3ccc(-c4nc(C(F)(F)F)cn4C)cc3)c2n1` [Compound 144]?
Answer: IC50 [1]: < 30 nM; IC50 [2]: 100 to 250 nM; IC50 [3]: ≥ 10000 nM; IC50 [4]: 100 to 250 nM

Question: For `COc1ncnc(C2CC2)c1-c1ncc2c(n1)c(Cc1ccc(-c3nc(C(F)(F)F)cn3C)cc1)cn2S(C)(=O)=O` [Compound 146, 2-(4-cyclopropyl-6-methoxy-pyrimidin-5-yl)-5-methylsulfonyl-7-[[4-[1-methyl-4-(trifluoromethyl)imidazol-2-yl]phenyl]methyl]pyrrolo[3,2-d]pyrimidine], which IC50 [1] is on record?
Answer: < 30 nM

Question: And the IC50 [2]?
Answer: < 100 nM

Question: What about the IC50 [3] of the same compound?
Answer: ≥ 10000 nM

Question: And the IC50 [4]?
Answer: 100 to 250 nM
